# Test results: US10716790B2, “Method for treating cancer by combined use” (priority 2015, dated 2020)
# Columns and labels:
# [1] = Body weight change of MOLM-13 tumor-bearing NOD-SCID mice under drug administration; assay type: in vivo, mouse; details: oral
# Procedure: (§1) Human acute myeloid leukemia cell line MOLM-13 cells having a FLT3-ITD mutation and wild-type TP53 were suspended to 5×10^7 cells/mL using phosphate-buffered saline. 0.1 mL of the prepared cell suspension was subcutaneously transplanted to each NOD-SCID mouse (male, 5 to 7 weeks old). On 6 days after the tumor inoculation, after confirmation that the average tumor volume exceeded 100 mm^3, the mice were randomized (N=6/group) on the basis of their tumor volume values. […] The administration was performed once a day for 5 consecutive days (6 to 10 days after the tumor inoculation) from the date of randomization (6 days after the tumor inoculation), and after a 2-day drug holiday, performed once a day for 4 consecutive days (13 to 16 days after the tumor inoculation). The length (mm) and width (mm) of tumor were measured over time using an electronic digital caliper. Tumor growth inhibition % (TGI %) on the date of assessment (17 days after the tumor inoculation) calculated according to calculation formula (4) shown below was used in evaluation. Also, the body weights were measured over time using an automatic balance for small animals, and body weight change % was calculated according to calculation formula (5) shown below to assess the influence of drug administration on the body weights. In addition, the results of the last body weight measurement were used in dose calculation. TGI (%)=(1−A/B)×100 (4)
# (§2) *: The tumor volume was calculated according to ½×[Major axis of tumor]×[Minor axis of tumor]×[Minor axis of tumor]. Body weight change (%)=Average body weight change % of the individuals Body weight change % of each individual=[…] (5)
# BWn: Body weight on day n
# BWs: Body weight on the start day of administration
# [2] = tested on: human acute myeloid leukemia cell line MOLM-13 cells having a FLT3-ITD mutation and wild-type TP53; assay: In vivo effect of combined use on subcutaneously transplanted MOLM-13 tumors in NOD-SCID mice; details: oral; for TGI (%): 17 days after tumor inoculation
# Procedure: as §1
# A: Average tumor volume of the compound-administered group on the date of assessment (*)
# B: Average tumor volume of the untreated control group on the date of assessment (*)
# as §2
# [3] = DS-3032b 25 mg/kg, day 6 after tumor inoculation
# [4] = DS-3032b 25 mg/kg, day 8 after tumor inoculation
# [5] = DS-3032b 25 mg/kg, day 10 after tumor inoculation
# [6] = DS-3032b 25 mg/kg, day 13 after tumor inoculation
# [7] = DS-3032b 25 mg/kg, day 15 after tumor inoculation
# [8] = DS-3032b 25 mg/kg, day 17 after tumor inoculation
# [9] = DS-3032b 50 mg/kg, day 6 after tumor inoculation
# [10] = DS-3032b 50 mg/kg, day 8 after tumor inoculation
# [11] = DS-3032b 50 mg/kg, day 10 after tumor inoculation
# [12] = DS-3032b 50 mg/kg, day 13 after tumor inoculation
# [13] = DS-3032b 50 mg/kg, day 15 after tumor inoculation
# [14] = DS-3032b 50 mg/kg, day 17 after tumor inoculation
smiles,measurement,setting,value
"CC1(C)CCC2(CC1)N[C@@H](C(=O)N[C@@H]1CC[C@@H](C(N)=O)OC1)[C@H](c1ccnc(Cl)c1F)[C@]21C(=O)Nc2cc(Cl)ccc21.Cc1ccc(S(=O)(=O)O)cc1 [Compound A, (3′R,4′S,5′R)—N-[(3R,6S)-6-carbamoyltetrahydro-2H-pyran-3-yl]-6″-chloro-4′-(2-chloro-3-fluoropyridin-4-yl)-4,4-dimethyl-2″-oxo-1″,2″-dihydrodispiro[cyclohexane-1,2′-pyrrolidine-3′,3″-indole]-5′-carboxamide tosylate]","Body weight change (%), average",[1]; [3],0.0%
same,"Body weight change (%), average",[1]; [4],2.1%
same,"Body weight change (%), average",[1]; [5],3.1%
same,"Body weight change (%), average",[1]; [6],6.4%
same,"Body weight change (%), average",[1]; [7],8.0%
same,"Body weight change (%), average",[1]; [8],10.6%
same,"Body weight change (%), average",[1]; [9],0.0%
same,"Body weight change (%), average",[1]; [10],1.5%
same,"Body weight change (%), average",[1]; [11],2.7%
same,"Body weight change (%), average",[1]; [12],5.5%
same,"Body weight change (%), average",[1]; [13],6.8%
same,"Body weight change (%), average",[1]; [14],5.8%
same,TGI (%),[2]; Compound A 25 mg/kg,38%
same,TGI (%),[2]; Compound A 50 mg/kg,82%
same,"Estimated tumor volume (mm^3), average",[2]; [3],169 mm^3
same,"Estimated tumor volume (mm^3), average",[2]; [4],266 mm^3
same,"Estimated tumor volume (mm^3), average",[2]; [5],425 mm^3
same,"Estimated tumor volume (mm^3), average",[2]; [6],812 mm^3
same,"Estimated tumor volume (mm^3), average",[2]; [7],983 mm^3
same,"Estimated tumor volume (mm^3), average",[2]; [8],1661 mm^3
same,"Estimated tumor volume (mm^3), average",[2]; [9],162 mm^3
same,"Estimated tumor volume (mm^3), average",[2]; [10],195 mm^3
same,"Estimated tumor volume (mm^3), average",[2]; [11],210 mm^3
same,"Estimated tumor volume (mm^3), average",[2]; [12],325 mm^3
same,"Estimated tumor volume (mm^3), average",[2]; [13],375 mm^3
same,"Estimated tumor volume (mm^3), average",[2]; [14],467 mm^3
"CC(C)(C)c1cc(NC(=O)Nc2ccc(-c3cn4c(n3)sc3cc(OCCN5CCOCC5)ccc34)cc2)no1 [Quizartinib, N-(5-tert-butyl-isoxazol-3-yl)-N′-{4-[7-(2-morpholin-4-yl-ethoxy)imidazo[2,1-b][1,3]benzothiazol-2-yl]phenyl}urea, reference compound]","Body weight change (%), average","[1]; Quizartinib 0.5 mg/kg, day 6 after tumor inoculation",0.0%
same,"Body weight change (%), average","[1]; Quizartinib 0.5 mg/kg, day 8 after tumor inoculation",4.2%
same,"Body weight change (%), average","[1]; Quizartinib 0.5 mg/kg, day 10 after tumor inoculation",4.2%
same,"Body weight change (%), average","[1]; Quizartinib 0.5 mg/kg, day 13 after tumor inoculation",8.5%
same,"Body weight change (%), average","[1]; Quizartinib 0.5 mg/kg, day 15 after tumor inoculation",9.6%
same,"Body weight change (%), average","[1]; Quizartinib 0.5 mg/kg, day 17 after tumor inoculation",10.7%
same,"Body weight change (%), average","[1]; Quizartinib 1 mg/kg, day 6 after tumor inoculation",0.0%
same,"Body weight change (%), average","[1]; Quizartinib 1 mg/kg, day 8 after tumor inoculation",0.2%
same,"Body weight change (%), average","[1]; Quizartinib 1 mg/kg, day 10 after tumor inoculation",1.8%
same,"Body weight change (%), average","[1]; Quizartinib 1 mg/kg, day 13 after tumor inoculation",4.6%
same,"Body weight change (%), average","[1]; Quizartinib 1 mg/kg, day 15 after tumor inoculation",5.1%
same,"Body weight change (%), average","[1]; Quizartinib 1 mg/kg, day 17 after tumor inoculation",5.8%
